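Method: 48-hour compound exposure of cells in 96-well plates, five concentrations, linear interpolation of endpoints. Abbreviation: GI50, concentration required for 50% inhibition of growth.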 The source made the active and inactive calls. Cut-off read from the data, not from the text of the source: active = GI50 up to about 1.1 µM and inactive = higher.
What was measured:
Assay in all cases: DTP human tumour cell line panel, 48 h
MDA-MB-435 = test system: MDA-MB-435
SF-295 = test system: SF-295
CAKI-1 = test system: CAKI-1
786-0 = test system: 786-0
SK-OV-3 = test system: SK-OV-3
OVCAR-3 = test system: OVCAR-3
U-251 = test system: U-251
Malme-3M = test system: Malme-3M
SNB-19 = test system: SNB-19
OVCAR-4 = test system: OVCAR-4
OVCAR-5 = test system: OVCAR-5
DU-145 = test system: DU-145
MOLT-4 = test system: MOLT-4
KM12 = test system: KM12
A549 = test system: A549
NCI/ADR-RES = test system: NCI/ADR-RES
SNB-75 = test system: SNB-75
SR = test system: SR
HT-29 = test system: HT-29
SF-268 = test system: SF-268

| SMILES | GI50 (MDA-MB-435) | GI50 (SF-295) | GI50 (CAKI-1) | GI50 (786-0) | GI50 (SK-OV-3) | GI50 (OVCAR-3) | GI50 (U-251) | GI50 (Malme-3M) | GI50 (SNB-19) | GI50 (OVCAR-4) | GI50 (OVCAR-5) | GI50 (DU-145) | GI50 (MOLT-4) | GI50 (KM12) | GI50 (A549) | GI50 (NCI/ADR-RES) | GI50 (SNB-75) | GI50 (SR) | GI50 (HT-29) | GI50 (SF-268) |
| --- | --- | --- | --- | --- | --- | --- | --- | --- | --- | --- | --- | --- | --- | --- | --- | --- | --- | --- | --- | --- |
| O=C(O)c1cnccc1-c1cc(=O)[nH]n1-c1ccccc1 | 46 µM (inactive) | 21.6 µM (inactive) | 15.4 µM (inactive) | > 79.6 µM (inactive) | > 100 µM (inactive) | > 43.9 µM (inactive) | > 100 µM (inactive) | > 100 µM (inactive) | > 100 µM (inactive) | > 51.9 µM (inactive) | > 63.4 µM (inactive) | > 53.1 µM (inactive) | 13.9 µM (inactive) | 9.75 µM (inactive) | 48.9 µM (inactive) | 27.6 µM (inactive) | > 68.5 µM (inactive) | 11.3 µM (inactive) | 21.4 µM (inactive) | > 83.2 µM (inactive) |
| CN(C)CCNc1ccc(C(=O)NCCCN(C)CCCNC(=O)c2ccc(NCCN(C)C)c3c(=O)c4ccccc4[nH]c23)c2[nH]c3ccccc3c(=O)c12 | 0.032 µM (active) | 0.0328 µM (active) | 5.6 µM (inactive) | < 0.0119 µM (active) | 0.109 µM (active) | 0.469 µM (active) | < 0.01 µM (active) | 0.0467 µM (active) | < 0.0118 µM (active) | 0.0322 µM (active) | 0.0458 µM (active) | < 0.0134 µM (active) | < 0.01 µM (active) | 0.0333 µM (active) | < 0.01 µM (active) | 5.08 µM (inactive) | < 0.01 µM (active) | < 0.01 µM (active) | < 0.01 µM (active) | < 0.01 µM (active) |
| CCOC(=O)C(Cc1ccc(OC(=O)OC(C)(C)C)cc1)NC(=O)OC(C)(C)C (stereo not given) | 38.2 µM (inactive) | > 100 µM (inactive) | > 100 µM (inactive) | 34.8 µM (inactive) | > 100 µM (inactive) | 40.6 µM (inactive) | 37.2 µM (inactive) | > 100 µM (inactive) | > 100 µM (inactive) | > 100 µM (inactive) | > 100 µM (inactive) | 30.5 µM (inactive) | 19.7 µM (inactive) | 70.6 µM (inactive) | > 100 µM (inactive) | 49.9 µM (inactive) | 17.1 µM (inactive) | 26.4 µM (inactive) | > 100 µM (inactive) | 65.2 µM (inactive) |
| COc1cc(C(=O)NNC(=O)c2cc(Br)ccc2NC(=O)c2cccs2)cc(OC)c1OC | 19.8 µM (inactive) | 19.1 µM (inactive) | 29 µM (inactive) | 17.7 µM (inactive) | 9.16 µM (inactive) | 24.2 µM (inactive) | 17.1 µM (inactive) | 23.2 µM (inactive) | 23.1 µM (inactive) | 12 µM (inactive) | 16.4 µM (inactive) | 29.3 µM (inactive) | 27.1 µM (inactive) | 22.8 µM (inactive) | 21.2 µM (inactive) | 18.5 µM (inactive) | 4.91 µM (inactive) | 22.9 µM (inactive) | 19.5 µM (inactive) | 9.64 µM (inactive) |
| CCC1([N+](=O)[O-])CN(N=O)C1 | > 100 µM (inactive) | > 100 µM (inactive) | > 100 µM (inactive) | > 100 µM (inactive) | > 100 µM (inactive) | > 100 µM (inactive) | > 100 µM (inactive) | > 100 µM (inactive) | > 100 µM (inactive) | > 100 µM (inactive) | > 100 µM (inactive) | > 100 µM (inactive) | > 100 µM (inactive) | > 100 µM (inactive) | > 100 µM (inactive) | > 100 µM (inactive) | > 100 µM (inactive) | > 100 µM (inactive) | > 100 µM (inactive) | > 100 µM (inactive) |
